Assay results as given in patent US20120270864A1, “2-QUINOLINONE AND 2-QUINOXALINONE-DERIVATIVES AND THEIR USE AS ANTIBACTERIAL AGENTS” (ASTRAZENECA AB, priority 2006, published 2012).

System: Staphylococcus aureus (Sau) 516 cells
Assay: Bacterial Susceptibility Testing Methods 2 (microbroth dilution, growth inhibition)
Type: cell-based
Settings: Staphylococcus aureus, Tested Concentration 4 μg/mL; Staphylococcus aureus 516 cell growth
Source text: Compounds may be tested for antimicrobial activity by susceptibility testing using microbroth dilution methods recommended by CSLI. Compounds may be dissolved in dimethylsulfoxide and tested in 10 doubling dilutions in the susceptibility assays such that the final dimethylsulfoxide concentration in the assay is 2% (v/v). The Staphylococcus aureus (Sau) 516 cells used in the assay may be grown overnight on appropriate agar media and then suspended in the NCCLS-recommended liquid susceptibility-testing media. […] Plates may be incubated under appropriate conditions of atmosphere and temperature and for times according to NCCLS standard methods prior to being read. As used in Table 1 below, the term “inhibition” refers to the percentage of Staphylococcus aureus 516 cell growth that is suppressed (compared to an untreated sample) by the compound of the indicated example number. When tested in the above in-vitro assay, the compounds and salts of the example numbers listed below were tested at the indicated concentrations, providing the indicated inhibitions. In most instances, the highest concentrations at which the compounds were tested was 8 μg/mL. In some instances, however, compounds were tested at concentrations higher than 8 μg/mL, typically when the concentration was first measured in μM and was subsequently converted to μg/mL. In those cases in which compounds were tested at more than one concentration higher than 8 μg/mL, the concentration closest to 8 μg/mL is provided below.

SMILES	inhibition at 4 µg/mL [%]
CO[C@H]1CN(CCn2c(=O)ccc3ccc(C#N)cc32)CC[C@@H]1NCc1cc2c(cn1)OCCO2 [Example 43, 1-(2-{(3S,4S)-4-[(2,3-Dihydro[1,4]dioxino[2,3-c]pyridin-7-ylmethyl)amino]-3-methoxypiperidin-1-yl}ethyl)-2-oxo-1,2-dihydroquinoline-7-carbonitrile]	100

Same assay, conditions: Staphylococcus aureus, Tested Concentration 8 μg/mL; Staphylococcus aureus 516 cell growth suppressed compared to untreated sample

SMILES	inhibition at 8 µg/mL [%]
CO[C@@H]1CN(CCn2c(=O)ccc3ccc(C#N)cc32)CC[C@@H]1NCc1ccc2c(n1)NC(=O)CS2 [Example 24, 1-[2-((3R,4S)-3-Methoxy-4-{[(3-oxo-3,4-dihydro-2H-pyrido[3,2-b][1,4]thiazin-6-yl)methyl]amino}piperidin-1-yl)ethyl]-2-oxo-1,2-dihydro quino line-7-carbonitrile]	100
CO[C@H]1CN(CCn2c(=O)ccc3ccc(C#N)cc32)CC[C@H]1NCc1cc2c(cn1)OCCO2 [Example 19, 1-(2-{(3S,4R)-4-[(2,3-Dihydro[1,4]dioxino[2,3-c]pyridin-7-ylmethyl)amino]-3-methoxypiperidin-1-yl}ethyl)-2-oxo-1,2-dihydro quinoline-7-carbonitrile]	100
COc1ccc2ncc(=O)n(CCN3CC[C@H](NCc4ccc5c(n4)NC(=O)CO5)[C@H](F)C3)c2c1 [Example 46, 6-[({(3R,4S)-3-Fluoro-1-[2-(7-methoxy-2-oxoquinoxalin-1(2H)-yl)ethyl]piperidin-4-yl}amino)methyl]-2H-pyrido[3,2-b][1,4]oxazin-3 (4H)-one]	100
CO[C@@H]1CN(CCn2c(=O)cc(C)c3ccc(C#N)cc32)CC[C@@H]1NCc1ccc2c(n1)NC(=O)CO2 [Example 47, 1-[2-((3R,4S)-3-M ethoxy-4-{[(3-oxo-3,4-dihydro-2H-pyrido[3,2-b][1,4]oxazin-6-yl)methyl]amino}piperidin-1-yl)ethyl]-4-methyl-2-oxo-1,2-dihydroquinoline-7-carbonitrile]	100
COc1ccc2ncc(=O)n(CCN3CCC(NCc4cc5c(cn4)OCCO5)C(O)C3)c2c1 (single isomer, unassigned) [Example 29, 1-(2-{4-[(2,3-Dihydro[1,4]dioxino[2,3-c]pyridin-7-ylmethyl)amino]-3-hydroxypiperidin-1-yl}ethyl)-7-methoxyquinoxalin-2(1H)-one]	84
COc1ccc2ncc(=O)n(CCN3CC[C@@H](NCc4cc5c(cn4)OCCO5)[C@@H](OC)C3)c2c1 [Example 14, 1-(2-{(3S,4R)-4-[(2,3-Dihydro[1,4]dioxino[2,3-c]pyridin-7-ylmethyl)amino]-3-methoxypiperidin-1-yl}ethyl)-7-methoxyquinoxalin-2(1H)-one]	100
COc1ccc2ncc(=O)n(CCN3CC[C@H](NCc4ccc5c(n4)NC(=O)CO5)[C@@H](OC)C3)c2c1 [Example 26, 6-[({(3S,4S)-3-Methoxy-1-[2-(7-methoxy-2-oxoquinoxalin-1(2H)-yl)ethyl]piperidin-4-yl}amino)methyl]-2H-pyrido[3,2-b][1,4]oxazin-3(4H)-one]	98
N#Cc1ccc2ccc(=O)n(CCN3CC[C@H](NCc4cc5c(cn4)OCCO5)[C@H](F)C3)c2c1 [Example 13, 1-(2-{(3R,4S)-4-[(2,3-Dihydro[1,4]dioxino[2,3-c]pyridin-7-ylmethyl)amino]-3-fluoropiperidin-1-yl}ethyl)-2-oxo-1,2-dihydro quino line-7-carbonitrile]	100
CO[C@H]1CN(CCn2c(=O)ccc3ccc(C#N)cc32)CC[C@@H]1NCc1cc2c(cn1)OCCO2 [Example 43, 1-(2-{(3S,4S)-4-[(2,3-Dihydro[1,4]dioxino[2,3-c]pyridin-7-ylmethyl)amino]-3-methoxypiperidin-1-yl}ethyl)-2-oxo-1,2-dihydroquinoline-7-carbonitrile]	12
CO[C@H]1CN(CCn2c(=O)ccc3ccc(C#N)cc32)CC[C@H]1NCc1ccc2c(n1)NC(=O)CO2 [Example 20, 1-[2-((3S,4R)-3-M ethoxy-4-{[(3-oxo-3,4-dihydro-2H-pyrido[3,2-b][1,4]oxazin-6-yl)methyl]amino}piperidin-1-yl)ethyl]-2-oxo-1,2-dihydro quino line-7-carbonitrile]	100
N#Cc1ccc2ccc(=O)n(CCN3CC[C@@H](NCc4ccc5c(n4)NC(=O)CS5)[C@@H](O)C3)c2c1 [Example 6, 1-[2-((3S,4R)-3-Hydroxy-4-{[(3-oxo-3,4-dihydro-2H-pyrido[3,2-b][1,4]thiazin-6-yl)methyl]amino}piperidin-1-yl)ethyl]-2-oxo-1,2-dihydro quino line-7-carbonitrile]	99
COc1ccc2ncc(=O)n(CCN3CC[C@H](NCc4cc5c(cn4)OCCO5)[C@H](O)C3)c2c1 [Example 7, 1-(2-{(3R,4S)-4-[(2,3-Dihydro[1,4]dioxino[2,3-c]pyridin-7-ylmethyl)amino]-3-hydroxypiperidin-1-yl}ethyl)-7-methoxyquinoxalin-2(1H)-one]	100
COc1ccc2ncc(=O)n(CCN3CC[C@H](NCc4cc5c(cn4)OCCO5)[C@@H](OC)C3)c2c1 [Example 25, 1-(2-{(3S,4S)-4-[(2,3-Dihydro[1,4]dioxino[2,3-c]pyridin-7-ylmethyl)amino]-3-methoxypiperidin-1-yl}ethyl)-7-methoxyquinoxalin-2(1H)-one]	98
CO[C@@H]1CN(CCn2c(=O)ccc3ccc(C#N)cc32)CC[C@@H]1NCc1cc2c(cn1)OCCO2 [Example 22, 1-(2-{(3R,4S)-4-[(2,3-Dihydro[1,4]dioxino[2,3-c]pyridin-7-ylmethyl)amino]-3-methoxypiperidin-1-yl}ethyl)-2-oxo-1,2-dihydroquinoline-7-carbonitrile]	100
CO[C@@H]1CN(CCn2c(=O)ccc3ccc(C#N)cc32)CC[C@H]1NCc1ccc2c(n1)NC(=O)CO2 [Example 42, 1-[2-((3R,4R)-3-methoxy-4-{[(3-oxo-3,4-dihydro-2H-pyrido[3,2-b][1,4]oxazin-6-yl)methyl]amino}piperidin-1-yl)ethyl]-2-oxo-1,2-dihydroquinoline-7-carbonitrile]	100
COc1ccc2ncc(=O)n(CCN3CC[C@H](NCc4ccc5c(n4)NC(=O)CO5)[C@H](OC)C3)c2c1 [Example 17, 6-[({(3R,4S)-3-Methoxy-1-[2-(7-methoxy-2-oxoquinoxalin-1(2H)-yl)ethyl]piperidin-4-yl}amino)methyl]-2H-pyrido[3,2-b][1,4]oxazin-3(4H)-one]	99
COc1ccc2ncc(=O)n(CCN3CC[C@@H](NCc4cc5c(cn4)OCCO5)[C@H](OC)C3)c2c1 [Example 27, 1-(2-{(3R,4R)-4-[(2,3-Dihydro[1,4]dioxino[2,3-c]pyridin-7-ylmethyl)amino]-3-methoxypiperidin-1-yl}ethyl)-7-methoxyquinoxalin-2(1H)-one]	87
COc1ccc2ncc(=O)n(CCN3CC[C@@H](NCc4ccc5c(n4)NC(=O)CO5)[C@@H](OC)C3)c2c1 [Example 15, 6-[({(3S,4R)-3-Methoxy-1-[2-(7-methoxy-2-oxoquinoxalin-1(2H)-yl)ethyl]piperidin-4-yl}amino)methyl]-2H-pyrido[3,2-b][1,4]oxazin-3 (4H)-one]	97
N#Cc1ccc2ccc(=O)n(CCN3CC[C@@H](NCc4ccc5c(n4)NC(=O)CO5)[C@@H](O)C3)c2c1 [Example 5, 1-[2-((3S,4R)-3-Hydroxy-4-{[(3-oxo-3,4-dihydro-2H-pyrido[3,2-b][1,4]oxazin-6-yl)methyl]amino}piperidin-1-yl)ethyl]-2-oxo-1,2-dihydro quino line-7-carbonitrile]	100

Same assay, conditions: Staphylococcus aureus, Tested Concentration 9 μg/mL; Staphylococcus aureus 516 cell growth

SMILES	inhibition at 9 µg/mL [%]
CO[C@H]1CN(CCn2c(=O)cc(C)c3ccc(C#N)cc32)CC[C@H]1NCc1ccc2c(n1)NC(=O)CO2 [Example 51, 1-[2-((3S,4R)-3-Methoxy-4-{[(3-oxo-3,4-dihydro-2H-pyrido[3,2-b][1,4]oxazin-6-yl)methyl]amino}piperidin-1-yl)ethyl]-4-methyl-2-oxo-1,2-dihydro quino line-7-carbonitrile]	100

Same assay, conditions: Staphylococcus aureus, Tested Concentration 12 μg/mL; Staphylococcus aureus 516 cell growth

SMILES	inhibition at 12 µg/mL [%]
N#Cc1ccc2ccc(=O)n(CCN3CCC(NCc4ccc5c(n4)NC(=O)CO5)C(F)C3)c2c1 (single isomer, unassigned) [Example 38, 1-[2-(3-Fluoro-4-{[(3-oxo-3,4-dihydro-2H-pyrido[3,2-b][1,4]oxazin-6-yl)methyl]amino}piperidin-1-yl)ethyl]-2-oxo-1,2-dihydro quino line-7-carbonitrile]	100

Same assay, conditions: Staphylococcus aureus, Tested Concentration 13 μg/mL; Staphylococcus aureus 516 cell growth

SMILES	inhibition at 13 µg/mL [%]
N#Cc1ccc2ccc(=O)n(CCN3CC[C@H](NCc4ccc5c(n4)NC(=O)CO5)[C@H](F)C3)c2c1 [Example 52, 1-[2-((3R,4S)-3-fluoro-4-{[(3-oxo-3,4-dihydro-2H-pyrido[3,2-b][1,4]oxazin-6-yl)methyl]amino}piperidin-1-yl)ethyl]-2-oxo-1,2-dihydroquinoline-7-carbonitrile]	100

Same assay, conditions: Tested Concentration 8 μg/mL; Staphylococcus aureus 516 cell growth suppressed compared to untreated sample

SMILES	Inhibition (%)
COc1ccc2ncc(=O)n(CCN3CC[C@H](NCc4ccc5c(n4)NC(=O)CS5)[C@H](OC)C3)c2c1 [Example 18]	95
N#Cc1ccc2ccc(=O)n(CCN3CC[C@H](NCc4cc5c(cn4)OCCO5)[C@H](O)C3)c2c1 [Example 1]	100

Same assay, conditions: Tested Concentration 14 μg/mL; Staphylococcus aureus 516 cell growth

SMILES	Inhibition (%)
COc1ccc2ncc(=O)n(CCN3CCC(NCc4cc5c(cn4)OCCO5)C(F)C3)c2c1 (single isomer, unassigned) [Example 39, 1-(2-{4-[(2,3-Dihydro[1,4]dioxino[2,3-c]pyridin-7-ylmethyl)amino]-3-fluoropiperidin-1-yl}ethyl)-7-methoxyquinoxalin-2(1H)-one]	100
